Data published in EP4094756A1 (priority 2021, dated 2022).
Like-named read-outs stand apart in the source and are kept apart here.

Key:
[1] = test system: VSV-ΔG SARS CoV-2 S pseudovirus; assay type: cell-based
SARS CoV-2 = assay type: cell-based
in vitro = conditions: monkey, vero cells
Method: (§1) Also, controls (solvent, Staurosporin (1 µM)) were prepared. Supernatants of cells were removed and substances applied for 8h, 24h and 48h at 37°C. • On day 2-4: fresh MTT [3-(4,5-Dimethylthiazol-2yl)-2,5-diphenyl-tetrazolium-bromid] was diluted in PBS to a final concentration of 5 mg/ml and 25 µl/well of MTT-solution were directly added to the wells and incubated for 1 h at 37°C. • MTT supernatant was removed and cells were lysed by 50 µl/well of 100 % DMSO and incubated for 1-5 minutes at room temperature. • Measurements were done at 562 nm in a photometer and % cell survival were calculated as = 100 × OD (sample) / OD (control).

[2] = human, in vivo, iv; cited from earlier work
[3] = MTT assay (cell survival); conditions: monkey, vero cells
Method: as §1

## Cc1cc(O)c2c(=O)c3c(O)cc(O)c4c5c(O)cc(O)c6c(=O)c7c(O)cc(C)c8c1c2c(c34)c(c78)c65 [Hypericin, hypericin]
[1]
  inhibition of the VSV pseudovirus: clearly inhibited
SARS CoV-2
  viral load in diseased cells (PFU/ml): dramatically lowers the viral load
In vitro
  MNTC: 1 µg/mL
[2]
  initial peak plasma levels: 29.5 ng/mL

## Cc1cc(O)c2c(=O)c3c(O)cc(O)c4c5c(O)cc(O)c6c(=O)c7c(O)cc(CO)c8c1c2c(c34)c(c65)c78 [Pseudohypericin, pseudohypericin]
[1]; 1µg/ml
  inhibition of the VSV pseudovirus: clearly inhibited
[3]
  MNTC: 1 µg/mL

## Oc1cc(O)c2c(c1)O[C@H](c1ccc(O)c(O)c1)[C@H](O)[C@H]2c1c(O)cc(O)c2c1O[C@H](c1ccc(O)c(O)c1)[C@H](O)[C@H]2c1c(O)cc(O)c2c1O[C@H](c1ccc(O)c(O)c1)[C@H](O)C2 [Procyanidin C1, reference compound]
[1]
  effect on the VSV pseudovirus: no significant inhibition
[3]
  MNTC: 50 µM

## CC(C)=CCC[C@]1(C)[C@@H](CC=C(C)C)C[C@]2(CC=C(C)C)C(=O)C(CC=C(C)C)=C(O)[C@@]1(C(=O)C(C)C)C2=O [Hyperforin, hyperforin, reference compound]
[1]
  impact on the VSV pseudovirus: did not have comparable impact
